The record followed here is patent EP2062893A1, “Fused imidazoles for cancer treatment” (Bayer Schering Pharma AG, priority 2007, dated 2009).

Holding throughout (assay type): cell-based
The test system of assay [1] is phosphorylated Akt protein. The experiment in a line: Cellular PI3K / Akt pathway assay (phospho-Akt Ser473 sandwich ELISA). Particulars: Homo sapiens; MCF7 cells, ß-Heregulin (20ng/ml) stimulation, 48h incubation. As to the method: In order to study the cellular activity of the compounds according to the present invention, an Enzyme Linked Immunosorbent Assay (ELISA)-based assay has been used specific phospho-AKT. The assay is based on a Sandwich ELISA kit (PathScan™ Phospho-Akt1 (Ser473); Cell Signaling, USA; #7160). The ELISA Kit detects endogenous levels of phosphorylated Akt protein. A phospho-Akt (Ser473) antibody (Cell Signaling, USA; #9271) has been coated onto the microwells. After incubation with cell lysates, the coated antibody captures the phosphorylated Akt protein. Following extensive washing, Akt1 monoclonal antibody (Cell Signaling, USA; #2967) is added to detect the captured phospho-Akt1 protein. HRP-linked anti-mouse antibody (HRP: horseradish peroxidase; Cell Signaling, USA; #7076) is then used to recognize the bound detection antibody. HRP substrate (= 3,3',5,5'-tetramethylbenzidine (TMB); Cell Signaling, USA; #7160) is added to develop colour. The magnitude of optical density for this developed color is proportional to the quantity of phosphorylated Akt protein. MCF7 cells (ATCC HTB-22) are seeded into 96 well fate bottom plates at a density of 10000 cells/well. 24 hours after seeding, the cells are serum starved using low-serum medium (IMEM media including 0,1% charcoal treated FCS (FCS: fetal calf serum)). […] To stimulate Akt phosphorylation, ß-Heregulin (20ng/ml ß-HRG) is added in parallel to the compounds. Wells containing unstimulated control cells (no ß-Heregulin stimulation) are incubated with or without the diluted compound. Wells containing untreated control cells (no compound) are filled with medium containing 0.5% v:v DMSO and are or are not stimulated with ß-Heregulin. Cells are harvested and lysed with brief sonification in 1x cell lysis buffer (20mM Tris (pH7.5), 150 mM NaCl, 1 mM ethylene diaminetetraacetate (EDTA), 1 mM ethylene glycolbis(2-aminoethyl)-N,N,N',N'-tetraacetic acid (EGTA), 1vol% Triton X-100, 2.5mM sodium pyrophosphate, 1 mM β-glycerolphosphate, 1 mM Na3VO4, 1µg/ml leupeptin). The lysate is centrifuged for 10 min. at 4°C and the supernatant is transferred to a new tube. 100 µl of sample diluent (0.1vol% Tween-20, 0.1vol% sodium azide in phosphate buffered saline (PBS)) are added to a microcentrifuge tube and 100 µl of cell lysate are transferred into the tube and vortexed. 100 µl of each diluted cell lysate are added to the appropriate ELISA well, and incubated overnight at 4°C. The plates are washed 4 times with 1x wash buffer (1vol% tween-20, 0.33vol% thymol, in PBS). Next 100 µl of detection antibody (Akt1 (2H10) monoclonal detection antibody; Cell Signaling, USA; #2967) are added to each well and incubation continued for 1h at 37°C. The washing procedure is repeated between each step. 100µl of secondary antibody (anti-mouse IgG HRP-linked antibody; Cell Signaling, USA; #7076) are added to each well and incubated for 30 min. at 37°C. Than, 100µl of TMB substrate (0.05% 3,3',5,5' tetramethylbenzidine, 0.1 % hydrogen peroxide, complex polypeptides in a buffered solution; Cell Signaling, USA; #7160) are added to each well and incubated for 30 min. at 25°C. Finally 100 µl of STOP solution (0.05vol% α and β unsaturated carbonyl compound) are added to each well and the plate are shaked gently. The absorbance is measured at λ =450 nm (Wallac Victor2; Perkin Elmer, USA) within 30 min. after adding the STOP solution. The analysis of the data is performed using a statistical program (Excel; Microsoft, USA). Preferred compounds show an inhibitory activity towards Akt phosphorylation below 10µM.

The test system of the next assay is OvCAR3 cells. The experiment in a line: Cellular proliferation / Cytotoxicity assay (Alamar Blue / Resazurin cell viability). Particulars: Homo sapiens, OVCAR-3, 48h incubation, read-out: Anti-proliferative / Cytotoxic activity (OvCAR3 cells). On the procedure: Wells containing untreated control cells were filled with 200 µl DMEM (Dulbecco's Modified Eagle Medium) containing 0.5vol% v:v DMSO. The cells are then incubated with the substances for 48h at 37°C in a humidified atmosphere containing 5vol% CO2. To determine the viability of the cells, 20 µl of a Resazurin solution (90mg / I) are added. […] Viabilities are expressed as % values.

In the next assay the test system is phosphorylated GSK3. The experiment in a line: Cellular pGSK3 assay (phospho-GSK3 Ser9 sandwich ELISA). Conditions: Homo sapiens; MCF7 cells, 48h incubation, IC50 of pGSK3 inhibition. As to the method: In order to study the cellular activity of the compounds according to the present invention, an ELISA-based assay has been established for the phosphorylated protein glycogen synthetase kinase 3 (GSK3). The assay is based on a solid phase sandwich ELISA that detects endogenous levels of phosphorylated GSK3 using a phospho-GSK3 (Ser9) specific antibody (BioSource International, Inc.; Catalog #KHO0461). After incubation with cell lysates, the coated antibody captures the phosphorylated GSK3 protein. Following extensive washing, GSK3 polyclonal antibody is added to detect the captured phospho-GSK3 protein. Secondary antibody (anti-rabbit IgG-HRP) is then used to recognize the bound detection antibody. After the second incubation and washing to remove all the excess anti-rabbit IgG-HRP, a substrate solution is added, which is acted upon by the bound enzyme to produce color. The intensity of this colored product is directly proportional to the concentration of GSK-3β [pS9] present in the original specimen. MCF7 cells (ATCC HTB-22) were seeded into 96 well fate bottom plates at a density of 10000 cells/well. After 24 h 1 µl each of the compound dilutions (test compounds were dissolved as 10 mM solutions in dimethylsulfoxide (DMSO) and subsequently diluted) were added into each well of the 96 well plates and incubated for 48h at 37°C in a humidified athmosphere containing 5% CO2. Cells were harvested and lysed in cell extraction buffer (10 mM Tris, pH 7.4, 100 mM NaCl, 1 mM EDTA, 1 mM EGTA, 1 mM NaF, 20 mM Na4P2O7, 2 mM Na3VO4, 1% Triton X-100, 10vol% glycerol, 0.1vol% SDS, 0.5vol% deoxycholate, 1 mM phenylmethylsulfonylfluorid (PMSF)). The lysate were centrifuged for 10 min. at 4°C and the supernatant were transferred to a new tube. 50 µl of sample diluent (standard diluent buffer, Biosource) were added and 100 µl of cell lysate transferred into the tube and vortexed. 100 µl of each diluted cell lysate were added to the appropriate ELISA well plate and incubated for 3h at room temperature. The plates were washed 4 times with 1x wash buffer (Biosource). 50 µl of detection antibody (GSK3 (Ser9) detection antibody; BioSource) were added to each well and incubated for 30 min. at room temperature. The washing procedure was repeated between each step. 100µl of HRP-linked secondary antibody (anti-mouse IgG HRP-linked antibody) were added to each well and incubated for 30 min. at room temperature. 100µl of TMB substrate (0.05vol% 3,3',5,5' tetramethylbenzidine, 0.1vol% hydrogen peroxide, complex polypeptides in a buffered solution; Biosource) were added to each well and incubated for 30 min. at room temperature. Finally 100 µl of Stop solution (0.05vol% α and β unsaturated carbonyl compound) were added to each well and the plate were shaked gently for a few seconds. The absorbance was measured at λ = 450 nm (Wallac Victor2; Perkin Elmer, USA) within 30 min. after adding the stop solution. The analysis of the data was performed using a statistical program (Excel; Microsoft, USA) and the IC50 of pGSK3 inhibition was determined.
In general terms: ELISA stands for enzyme-linked immunosorbent assay.

`Cc1ccn2c(-c3ccccc3)c(-c3ccc(CN4CCC(c5n[nH]c(-c6ccccn6)n5)CC4)cc3)nc2n1` [Example 19, 7-methyl-3-phenyl-2-(4-{[4-(5-pyridin-2-yl-1,2,4-triazol-3-yl)piperidin-1-yl]methyl}phenyl)imidazo[1,2-a]pyrimidine]: the IC50 in assay [1] is less than 1000 nM; in the assay on OvCAR3 cells, less than 10000 nM; with phosphorylated GSK3, less than 1000 nM.

Take `c1ccc(-c2c(-c3ccc(CN4CCC(c5n[nH]c(-c6ccccn6)n5)CC4)cc3)nc3scnn23)cc1` [Example 11, 5-phenyl-6-(4-{[4-(5-pyridin-2-yl-1,2,4-triazol-3-yl)piperidin-1-yl]methyl}phenyl)imidazo[2,1-b][1,3,4]thiadiazole]: the values for the IC50 (in assay [1]; in the assay on OvCAR3 cells; in the assay with phosphorylated GSK3) were less than 1000 nM, less than 10000 nM and 1000 to 10000 nM, respectively.

For the molecule `c1ccc(-c2nc(C3CCN(Cc4ccc(-c5nc6ncccn6c5-c5nccs5)cc4)CC3)n[nH]2)nc1` [Example 39, 2-(4-{[4-(5-pyridin-2-yl-1,2,4-triazol-3-yl)piperidin-1-yl]methyl}phenyl)-3-(1,3-thiazol-2-yl)imidazo[1,2-a]pyrimidine], the IC50 is less than 1000 nM in assay [1], less than 10000 nM in the assay on OvCAR3 cells and 1000 to 10000 nM in the assay on phosphorylated GSK3.

On to `N#Cc1cccn2c(-c3ccccc3)c(-c3ccc(CN4CCC(c5n[nH]c(-c6ccccn6)n5)CC4)cc3)nc12` [Example 5, 3-phenyl-2-(4-{[4-(5-pyridin-2-yl-1,2,4-triazol-3-yl)piperidin-1-yl]methyl}phenyl)imidazo[1,2-a]pyridine-8-carbonitrile], for which the IC50 (in assay [1]; in the assay with phosphorylated GSK3) was less than 1000 nM in each case.

On to `Clc1nccn2c(-c3ccccc3)c(-c3ccc(CN4CCC(c5n[nH]c(-c6ccccn6)n5)CC4)cc3)nc12` [Example 26, 8-chloro-3-phenyl-2-(4-{[4-(5-pyridin-2-yl-1,2,4-triazol-3-yl)piperidin-1-yl]methyl}phenyl)imidazo[1,2-a]pyrazine], for which the IC50 with OvCAR3 cells is less than 10000 nM; in the assay with phosphorylated GSK3, 1000 to 10000 nM.

Turning to `c1ccc(-c2nc(C3CCN(Cc4ccc(-c5nc6ncccn6c5-c5cccs5)cc4)CC3)n[nH]2)nc1` [Example 35, 2-(4-{[4-(5-pyridin-2-yl-1,2,4-triazol-3-yl)piperidin-1-yl]methyl}phenyl)-3-(2-thienyl)imidazo[1,2-a]pyrimidine], the IC50 with OvCAR3 cells is less than 10000 nM; with phosphorylated GSK3, 1000 to 10000 nM.

`Clc1ccc2nc(-c3ccc(CN4CCC(c5n[nH]c(-c6ccccn6)n5)CC4)cc3)c(-c3ccccc3)n2n1` [Example 31, 6-chloro-3-phenyl-2-(4-{[4-(5-pyridin-2-yl-1,2,4-triazol-3-yl)piperidin-1-yl]methyl}phenyl)imidazo[1,2-b]pyridazine]: the IC50 (in assay [1]; in the assay on phosphorylated GSK3) was less than 1000 nM in each case.

The molecule `Fc1ccccc1-c1c(-c2ccc(CN3CCC(c4n[nH]c(-c5ccccn5)n4)CC3)cc2)nc2ncccn12` [Example 41, 3-(2-fluorophenyl)-2-(4-{[4-(5-pyridin-2-yl-1,2,4-triazol-3-yl)piperidin-1-yl]methyl}phenyl)imidazo[1,2-a]pyrimidine] displayed an IC50 in assay [1] of less than 1000 nM.

On to `c1ccc(-c2nc(C3CCN(Cc4ccc(-c5nc6sccn6c5-c5nccs5)cc4)CC3)n[nH]2)nc1` [Example 42, 6-(4-{[4-(5-pyridin-2-yl-1,2,4-triazol-3-yl)piperidin-1-yl]methyl}phenyl)-5-(1,3-thiazol-2-yl)imidazo[2,1-b][1,3]thiazole], for which the IC50 in assay [1] was less than 1000 nM.

Turning to `c1ccc(-c2nc(C3CCN(Cc4ccc(-c5nc6ncccn6c5-c5ccncc5)cc4)CC3)n[nH]2)nc1` [Example 36, 3-pyridin-4-yl-2-(4-{[4-(5-pyridin-2-yl-1,2,4-triazol-3-yl)piperidin-1-yl]methyl}phenyl)imidazo[1,2-a]pyrimidine], the IC50 in the assay on OvCAR3 cells is more than 10000 nM; in the assay with phosphorylated GSK3, 1000 to 10000 nM.

Regarding `FC(F)(F)c1ccn2c(-c3ccccc3)c(-c3ccc(CN4CCC(c5n[nH]c(-c6ccccn6)n5)CC4)cc3)nc2n1` [Example 28, 3-phenyl-2-(4-{[4-(5-pyridin-2-yl-1,2,4-triazol-3-yl)piperidin-1-yl]methyl}phenyl)-7-(trifluoromethyl)imidazo[1,2-a]pyrimidine], the IC50 with OvCAR3 cells was less than 10000 nM; in the assay with phosphorylated GSK3 it was 1000 to 10000 nM.

Regarding `NC(=O)c1cccn2c(-c3ccccc3)c(-c3ccc(CN4CCC(c5n[nH]c(-c6ccccn6)n5)CC4)cc3)nc12` [Example 40, 3-phenyl-2-(4-{[4-(5-pyridin-2-yl-1,2,4-triazol-3-yl)piperidin-1-yl]methyl}phenyl)imidazo[1,2-a]pyridine-8-carboxamide], the IC50 (in assay [1]; in the assay with phosphorylated GSK3) was less than 1000 nM in each case.

Take `c1ccc(-c2c(-c3ccc(CN4CCC(c5nc(-c6cnccn6)no5)CC4)cc3)nc3ncccn23)cc1` [Example 4, 3-phenyl-2-(4-{[4-(3-pyrazin-2-yl-1,2,4-oxadiazol-5-yl)piperidin-1-yl]methyl}phenyl)imidazo[1,2-a]pyrimidine]: the IC50 is more than 10000 nM in the assay on OvCAR3 cells and 1000 to 10000 nM in the assay with phosphorylated GSK3.
